Activity calls are given as the source filed them. No cut-off for these calls is given here.
Key:
Format in all cases: functional
Staphylococcus aureus [1] = assay: Antibacterial activity against Staphylococcus aureus assessed at 50 ug after 24 hrs by agar well diffusion method; details: for zone of inhibition at 50 µg/disc: read-out: DIZ
Staphylococcus aureus [2] = assay: Antibacterial activity against Staphylococcus aureus at 100 ug after 24 hrs by agar well diffusion method; details: for zone of inhibition at 100 µg/disc: read-out: DIZ
Bacillus subtilis [3] = assay: Antibacterial activity against Bacillus subtilis at 50 ug after 24 hrs by agar well diffusion method; details: for zone of inhibition at 50 µg/disc: read-out: DIZ
Bacillus subtilis [4] = assay: Antibacterial activity against Bacillus subtilis at 100 ug after 24 hrs by agar well diffusion method; details: for zone of inhibition at 100 µg/disc: read-out: DIZ
Pseudomonas aeruginosa [5] = assay: Antibacterial activity against Pseudomonas aeruginosa at 50 ug after 24 hrs by agar well diffusion method; details: for zone of inhibition at 50 µg/disc: read-out: DIZ
Pseudomonas aeruginosa [6] = assay: Antibacterial activity against Pseudomonas aeruginosa at 100 ug after 24 hrs by agar well diffusion method; details: for zone of inhibition at 100 µg/disc: read-out: DIZ
Klebsiella pneumoniae [7] = assay: Antibacterial activity against Klebsiella pneumoniae at 50 ug after 24 hrs by agar well diffusion method; details: for zone of inhibition at 50 µg/disc: read-out: DIZ
Klebsiella pneumoniae [8] = assay: Antibacterial activity against Klebsiella pneumoniae at 100 ug after 24 hrs by agar well diffusion method; details: for zone of inhibition at 100 µg/disc: read-out: DIZ
Aspergillus niger [9] = assay: Antifungal activity against Aspergillus niger at 50 ug after 48 hrs by agar well diffusion method; details: for zone of inhibition at 50 µg/disc: read-out: DIZ
Aspergillus niger [10] = assay: Antifungal activity against Aspergillus niger at 100 ug after 48 hrs by agar well diffusion method; details: for zone of inhibition at 100 µg/disc: read-out: DIZ
Penicillium chrysogenum [11] = assay: Antifungal activity against Penicillium chrysogenum at 50 ug after 48 hrs by agar well diffusion method; details: for zone of inhibition at 50 µg/disc: read-out: DIZ
Penicillium chrysogenum [12] = assay: Antifungal activity against Penicillium chrysogenum at 100 ug after 48 hrs by agar well diffusion method; details: for zone of inhibition at 100 µg/disc: read-out: DIZ
Staphylococcus aureus [13] = assay: Antibacterial activity against Staphylococcus aureus at 35 degC after 24 hrs by broth dilution method
Staphylococcus aureus [14] = assay: Antibacterial activity against Staphylococcus aureus at 35 degC after 24 hrs by NCCLS M7-A3 method
Bacillus subtilis [15] = assay: Bactericidal activity against Bacillus subtilis after 24 hrs by broth dilution method
Bacillus subtilis [16] = assay: Bactericidal activity against Bacillus subtilis after 24 hrs by NCCLS M7-A3 method
Pseudomonas aeruginosa [17] = assay: Bactericidal activity against Pseudomonas aeruginosa after 24 hrs by broth dilution method
Pseudomonas aeruginosa [18] = assay: Bactericidal activity against Pseudomonas aeruginosa after 24 hrs by NCCLS M7-A3 method
Klebsiella pneumoniae [19] = assay: Bactericidal activity against Klebsiella pneumoniae after 24 hrs by broth dilution method
Klebsiella pneumoniae [20] = assay: Bactericidal activity against Klebsiella pneumoniae after 24 hrs by NCCLS M7-A3 method
Aspergillus niger [21] = assay: Fungicidal activity against Aspergillus niger after 48 hrs by broth dilution method
Aspergillus niger [22] = assay: Fungicidal activity against Aspergillus niger after 48 hrs by NCCLS M27-P broth dilution method
Penicillium chrysogenum [23] = assay: Fungicidal activity against Penicillium chrysogenum after 48 hrs by broth dilution method
Penicillium chrysogenum [24] = assay: Fungicidal activity against Penicillium chrysogenum after 48 hrs by NCCLS M27-P broth dilution method

SMILES | zone of inhibition at 50 µg/disc (Staphylococcus aureus [1]) [mm] | zone of inhibition at 100 µg/disc (Staphylococcus aureus [2]) [mm] | zone of inhibition at 50 µg/disc (Bacillus subtilis [3]) [mm] | zone of inhibition at 100 µg/disc (Bacillus subtilis [4]) [mm] | zone of inhibition at 50 µg/disc (Pseudomonas aeruginosa [5]) [mm] | zone of inhibition at 100 µg/disc (Pseudomonas aeruginosa [6]) [mm] | zone of inhibition at 50 µg/disc (Klebsiella pneumoniae [7]) [mm] | zone of inhibition at 100 µg/disc (Klebsiella pneumoniae [8]) [mm] | zone of inhibition at 50 µg/disc (Aspergillus niger [9]) [mm] | zone of inhibition at 100 µg/disc (Aspergillus niger [10]) [mm] | zone of inhibition at 50 µg/disc (Penicillium chrysogenum [11]) [mm] | zone of inhibition at 100 µg/disc (Penicillium chrysogenum [12]) [mm] | MIC (Staphylococcus aureus [13]) [µg] | MBC (Staphylococcus aureus [14]) [µg] | MIC (Bacillus subtilis [15]) [µg] | MBC (Bacillus subtilis [16]) [µg] | MIC (Pseudomonas aeruginosa [17]) [µg] | MIC (Klebsiella pneumoniae [19]) [µg] | MIC (Aspergillus niger [21]) [µg] | MIC (Penicillium chrysogenum [23]) [µg] | further results
O=C(Nc1nc(-c2ccc(Cl)cc2)c[nH]1)c1c[nH]cc1-c1ccccc1 | 30 | 33 | 29 | 33 | 25 | 28 | 34 | 36 | 32 | 34 | 33 | 36 | 50 | 200 | 25 | 100 | 50 | 100 | 25 | 50 | MBC (Pseudomonas aeruginosa [18]): >200 µg; MBC (Klebsiella pneumoniae [20]): >200 µg; MFC (Aspergillus niger [22]): 100 µg; MFC (Penicillium chrysogenum [24]): >200 µg
CC(=O)N1CCN(c2ccc(OCC3COC(Cn4ccnc4)(c4ccc(Cl)cc4Cl)O3)cc2)CC1 (centres undefined) [KETOCONAZOLE] | – | – | – | – | – | – | – | – | 33 | 36 | 36 | 38 | – | – | – | – | – | – | 6.25 | 12.5 | –
O=C(Nc1nc(-c2ccc(Cl)cc2)c[nH]1)c1n[nH]cc1-c1ccccc1 | 31 | 34 | 33 | 35 | 30 | 32 | 37 | 39 | 30 | 34 | 33 | 37 | 50 | 200 | 12.5 | 50 | 25 | 50 | 12.5 | 25 | MBC (Pseudomonas aeruginosa [18]): 100 µg; MBC (Klebsiella pneumoniae [20]): 200 µg; MFC (Aspergillus niger [22]): 50 µg; MFC (Penicillium chrysogenum [24]): 100 µg
O=C(/C=C/c1ccccc1)Nc1nc(-c2ccc(Cl)cc2)c[nH]1 | 32 | 35 | 36 | 38 | 31 | 33 | 39 | 40 | 32 | 34 | 35 | 38 | 12.5 | 50 | 12.5 | 25 | 12.5 | 25 | 12.5 | 25 | MBC (Pseudomonas aeruginosa [18]): 50 µg; MBC (Klebsiella pneumoniae [20]): 100 µg; MFC (Aspergillus niger [22]): 100 µg; MFC (Penicillium chrysogenum [24]): 50 µg
O=C(N[C@H](CO)[C@H](O)c1ccc([N+](=O)[O-])cc1)C(Cl)Cl [CHLORAMPHENICOL] | 33 | 35 | 34 | 38 | 27 | 30 | 40 | 42 | – | – | – | – | 6.25 | – | 6.25 | – | 6.25 | 12.5 | – | – | –
Cc1ccc(-c2coc(NC(=O)c3n[nH]cc3-c3ccccc3)n2)cc1 | – | – | – | – | – | – | – | – | – | – | – | – | – | – | – | – | – | – | – | – | diameter of the inhibition zone (DIZ) (Staphylococcus aureus [1]): inactive; diameter of the inhibition zone (DIZ) (Staphylococcus aureus [2]): inactive; diameter of the inhibition zone (DIZ) (Bacillus subtilis [3]): inactive; diameter of the inhibition zone (DIZ) (Bacillus subtilis [4]): inactive; diameter of the inhibition zone (DIZ) (Pseudomonas aeruginosa [5]): inactive; diameter of the inhibition zone (DIZ) (Pseudomonas aeruginosa [6]): inactive; diameter of the inhibition zone (DIZ) (Klebsiella pneumoniae [7]): inactive; diameter of the inhibition zone (DIZ) (Klebsiella pneumoniae [8]): inactive; diameter of the inhibition zone (DIZ) (Aspergillus niger [9]): inactive; diameter of the inhibition zone (DIZ) (Aspergillus niger [10]): inactive; diameter of the inhibition zone (DIZ) (Penicillium chrysogenum [11]): inactive; diameter of the inhibition zone (DIZ) (Penicillium chrysogenum [12]): inactive
Cc1ccc(-c2csc(NC(=O)/C=C/c3ccccc3)n2)cc1 | 20 | 22 | 23 | 25 | 15 | 17 | 25 | 27 | 19 | 23 | 22 | 25 | – | – | – | – | – | – | – | – | –
